IC50 and EC50 data for 38 molecules are collected here from the Kinase Knowledgebase extract (Sharma et al. 2016).

pEC50, pIC50: −log10 of the molar value.

For test [1], the target named is EGFR (UniProt P00533).
The target of test [2] is EGFR (human) (UniProt P00533).
In test [3] the target is EGFR (UniProt P00533). The source holds these as a separate data set.
The target of test [4] is EGFR (human) (UniProt P00533). The conditions noted are these: a431.
For test [5], the target named is MAPK14 (UniProt Q16539). The test is described as follows: p38 Kinase Inhibition.
The target in test [6] is EGFR (human) (UniProt P00533). This is another data set of the same source.
Test [7] has as its target EGFR (human) (UniProt P00533). This is another data set of the same source.
Test [8] deals with EGFR (human) (UniProt P00533). The conditions noted are these: a431. This is another data set of the same source.
For test [9], the target named is MAPK14 (UniProt Q16539). The test is described as follows: p38-alpha Inhibition.
In the next test the target is EGFR (murine) (UniProt P00533). The conditions noted are these: nih 3t3.
Test [10] has as its target PIK3CA (human) (UniProt P42336). The test is described as follows: Assessment of PI3K Dependent Phosphorylation of p-AKT(T308) in PC3 Cells. The conditions noted are these: pc-3.
The target in test [11] is MAPK14 (human) (UniProt Q16539). The test is described as follows: Inhibition of TNF-alpha Production in PBMC Cells.
The next test has as its target EGFR (mouse) (UniProt P00533). The conditions noted are these: mk.
For test [12], the target named is MAPK14 (UniProt Q16539). The test is described as follows: Assessment of MAPK14 Kinase Activity.
The target of test [13] is MAPK14 (human) (UniProt Q16539). The test is described as follows: Inhibition of TNF-alpha Production in LPS Stimulated Whole Blood. The conditions noted are these: blood cells.
Test [14] addresses ROCK2 (human) (UniProt O75116). The test is described as follows: Assessment of ROCK2 Kinase Activity (ProQinase Setup).
For test [15], the target named is PIK3CA (human) (UniProt P42336). The test is described as follows: Antiproliferation of NZOV9 Cell Line Using Thymidine Depletion Assay.
Sequence of PIK3CA (human) (P42336 whole entry, looked up): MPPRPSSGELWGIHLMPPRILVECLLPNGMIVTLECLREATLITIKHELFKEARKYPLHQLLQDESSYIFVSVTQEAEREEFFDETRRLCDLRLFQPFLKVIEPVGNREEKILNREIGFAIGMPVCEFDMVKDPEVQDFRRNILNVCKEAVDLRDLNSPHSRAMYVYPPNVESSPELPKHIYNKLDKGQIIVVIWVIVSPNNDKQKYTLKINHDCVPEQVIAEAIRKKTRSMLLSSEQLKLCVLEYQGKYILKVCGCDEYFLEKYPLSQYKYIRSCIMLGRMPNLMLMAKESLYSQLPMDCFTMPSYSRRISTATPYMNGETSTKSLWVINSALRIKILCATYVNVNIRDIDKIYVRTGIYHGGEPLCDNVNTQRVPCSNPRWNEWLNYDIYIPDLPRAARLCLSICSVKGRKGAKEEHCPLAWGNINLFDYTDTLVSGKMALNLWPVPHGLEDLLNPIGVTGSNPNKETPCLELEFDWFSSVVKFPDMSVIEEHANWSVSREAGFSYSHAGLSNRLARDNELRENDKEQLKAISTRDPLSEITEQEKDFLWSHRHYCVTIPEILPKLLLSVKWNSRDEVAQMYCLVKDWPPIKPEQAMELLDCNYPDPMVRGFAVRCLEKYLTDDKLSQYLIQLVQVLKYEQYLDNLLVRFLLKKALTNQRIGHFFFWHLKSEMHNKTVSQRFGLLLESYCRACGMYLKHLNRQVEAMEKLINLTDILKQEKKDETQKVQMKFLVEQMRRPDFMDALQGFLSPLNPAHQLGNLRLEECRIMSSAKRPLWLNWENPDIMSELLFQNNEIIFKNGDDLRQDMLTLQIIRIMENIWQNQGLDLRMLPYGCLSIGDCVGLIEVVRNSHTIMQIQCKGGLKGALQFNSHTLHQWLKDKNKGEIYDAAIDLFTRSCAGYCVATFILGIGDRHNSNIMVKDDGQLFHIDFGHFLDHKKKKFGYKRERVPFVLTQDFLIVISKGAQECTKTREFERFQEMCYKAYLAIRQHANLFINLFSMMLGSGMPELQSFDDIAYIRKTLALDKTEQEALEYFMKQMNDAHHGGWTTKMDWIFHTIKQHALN
The target in test [16] is EGFR (human) (UniProt P00533). The conditions noted are these: A431.
Test [17] concerns the target EGFR (UniProt P00533). This is another data set of the same source.
Test [18] addresses ROCK2 (human) (UniProt O75116). The test is described as follows: Assessment of ROCK2 Kinase Activity (Fluorescence Polarization Assay).
Test [19] addresses CDK2 (human) (UniProt P24941). The test is described as follows: Enzyme Assay.
Test [20] addresses CDK2 (human) (UniProt P24941). The test is described as follows: Enzyme Assay. This is another data set of the same source.
Test [21] concerns the target EGFR (human) (UniProt P00533). The conditions noted are these: kb.

Sequence of ROCK2 (human) (O75116 whole entry, looked up): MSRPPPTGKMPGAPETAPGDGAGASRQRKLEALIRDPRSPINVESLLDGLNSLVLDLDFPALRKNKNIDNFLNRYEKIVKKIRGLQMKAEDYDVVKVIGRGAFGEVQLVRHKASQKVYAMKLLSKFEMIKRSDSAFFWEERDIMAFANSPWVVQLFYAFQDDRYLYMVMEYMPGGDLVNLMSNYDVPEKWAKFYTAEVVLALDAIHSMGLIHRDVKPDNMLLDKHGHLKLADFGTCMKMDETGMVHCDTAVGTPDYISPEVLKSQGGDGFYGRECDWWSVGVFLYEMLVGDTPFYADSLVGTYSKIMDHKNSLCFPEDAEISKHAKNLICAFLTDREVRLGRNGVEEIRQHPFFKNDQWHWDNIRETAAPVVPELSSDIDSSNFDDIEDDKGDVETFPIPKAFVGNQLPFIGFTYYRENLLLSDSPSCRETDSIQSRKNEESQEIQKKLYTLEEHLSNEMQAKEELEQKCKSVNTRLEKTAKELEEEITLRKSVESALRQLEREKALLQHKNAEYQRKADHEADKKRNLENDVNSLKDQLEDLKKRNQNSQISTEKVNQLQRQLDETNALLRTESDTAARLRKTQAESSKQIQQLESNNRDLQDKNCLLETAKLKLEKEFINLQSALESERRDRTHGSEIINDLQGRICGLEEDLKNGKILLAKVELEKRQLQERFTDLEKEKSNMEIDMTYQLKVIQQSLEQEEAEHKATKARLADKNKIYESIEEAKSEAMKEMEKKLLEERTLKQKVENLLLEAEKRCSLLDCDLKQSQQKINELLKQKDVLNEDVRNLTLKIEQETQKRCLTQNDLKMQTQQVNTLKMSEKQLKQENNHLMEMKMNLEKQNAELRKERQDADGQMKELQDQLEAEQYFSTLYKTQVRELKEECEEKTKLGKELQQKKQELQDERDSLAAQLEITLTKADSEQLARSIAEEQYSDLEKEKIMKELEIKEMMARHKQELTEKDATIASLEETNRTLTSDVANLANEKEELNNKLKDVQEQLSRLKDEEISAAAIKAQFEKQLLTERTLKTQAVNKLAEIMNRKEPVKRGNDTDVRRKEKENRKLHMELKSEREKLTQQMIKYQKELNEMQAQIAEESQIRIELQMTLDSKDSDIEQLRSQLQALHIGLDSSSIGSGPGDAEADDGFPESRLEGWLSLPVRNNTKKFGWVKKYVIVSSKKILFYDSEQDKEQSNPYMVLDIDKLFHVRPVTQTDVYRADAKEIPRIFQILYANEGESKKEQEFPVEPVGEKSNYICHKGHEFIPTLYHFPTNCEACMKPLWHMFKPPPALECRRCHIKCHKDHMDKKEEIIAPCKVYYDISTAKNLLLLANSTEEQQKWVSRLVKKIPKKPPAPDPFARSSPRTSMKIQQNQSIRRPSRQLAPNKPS
Sequence of EGFR (P00533 whole entry, looked up): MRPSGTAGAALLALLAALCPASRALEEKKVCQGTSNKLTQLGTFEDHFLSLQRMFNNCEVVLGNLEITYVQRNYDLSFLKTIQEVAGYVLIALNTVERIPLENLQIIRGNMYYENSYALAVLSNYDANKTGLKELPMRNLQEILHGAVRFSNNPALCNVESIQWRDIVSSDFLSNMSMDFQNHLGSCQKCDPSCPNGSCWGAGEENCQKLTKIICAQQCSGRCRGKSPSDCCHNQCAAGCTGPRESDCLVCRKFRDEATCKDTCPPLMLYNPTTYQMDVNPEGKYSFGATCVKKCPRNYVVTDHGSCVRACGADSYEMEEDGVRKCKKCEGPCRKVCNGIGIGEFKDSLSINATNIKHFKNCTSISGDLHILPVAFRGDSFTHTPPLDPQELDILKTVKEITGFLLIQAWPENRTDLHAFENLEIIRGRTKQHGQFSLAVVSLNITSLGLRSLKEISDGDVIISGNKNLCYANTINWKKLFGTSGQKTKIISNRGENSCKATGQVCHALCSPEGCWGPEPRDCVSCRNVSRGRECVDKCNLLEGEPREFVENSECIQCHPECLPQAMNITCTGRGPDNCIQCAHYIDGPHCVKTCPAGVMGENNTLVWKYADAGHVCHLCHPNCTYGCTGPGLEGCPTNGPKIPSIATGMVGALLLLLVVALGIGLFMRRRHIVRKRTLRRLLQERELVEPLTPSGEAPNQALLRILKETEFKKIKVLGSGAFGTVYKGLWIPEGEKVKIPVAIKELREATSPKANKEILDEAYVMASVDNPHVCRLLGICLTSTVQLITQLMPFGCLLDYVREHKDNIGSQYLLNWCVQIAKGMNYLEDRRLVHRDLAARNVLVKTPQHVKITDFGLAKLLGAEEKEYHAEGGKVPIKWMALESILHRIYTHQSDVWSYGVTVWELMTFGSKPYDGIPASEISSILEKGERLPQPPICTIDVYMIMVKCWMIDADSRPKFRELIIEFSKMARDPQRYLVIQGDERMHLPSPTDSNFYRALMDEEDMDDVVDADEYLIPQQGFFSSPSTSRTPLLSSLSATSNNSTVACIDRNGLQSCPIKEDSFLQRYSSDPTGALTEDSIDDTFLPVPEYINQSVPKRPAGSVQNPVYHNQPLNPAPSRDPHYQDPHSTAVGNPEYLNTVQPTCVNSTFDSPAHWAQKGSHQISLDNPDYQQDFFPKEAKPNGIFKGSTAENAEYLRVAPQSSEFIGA
Sequence of EGFR (human) (P00533 whole entry, looked up): as above

In turn, `Cc1[nH]c2ncnc(N3CCCc4ccccc43)c2c1C` showed a pIC50 against EGFR [1] of 5.57.

The molecule `O=C(/C=C/CN1CC2CC1CO2)Nc1cc2c(Nc3ccc(F)c(Cl)c3)ncnc2cc1OCC1CC1` (stereo not given) gave a pIC50 on EGFR (human) [2] of 8.82.

In turn, `Cc1[nH]c2ncnc(N3CCc4ccccc43)c2c1C` had a pIC50 at EGFR [1] of 5.81.

As to `NC(=O)c1cc2ccc(O)c(O)c2cn1`, the pIC50 on EGFR [3] is below 4.00.

As for `COc1ccc(OC)c(Cc2cc3c(NC4C=C(Br)C=CC4)nc(N)nc3[nH]2)c1` (stereo not given), on EGFR (human) [4], the pIC50 is below 4.30.

Regarding `C[C@]1(C(=O)N2CCOCC2)CO[C@H](c2nc(-c3ccc(F)cc3)c(-c3ccnc(NCc4ccccn4)n3)[nH]2)OC1`, at MAPK14 [5], the pIC50 is 7.96.

Molecule `O=C1C2=C(C(=O)c3c(O)ccc(O)c31)[C@@H](O)[C@@H](O)[C@@H](O)C2` showed a pIC50 at EGFR (human) [6] of 4.89.

In turn, `COC(=O)CCc1c(SSc2c(CCC(=O)OC)c3ccccc3n2C)n(C)c2ccccc12` had a pIC50 at EGFR (human) [7] below 4.00.

Turning to `O=C(C=C1CCNCC1)Nc1ccc2ncnc(Nc3ccc4[nH]ccc4c3)c2c1`, the negative-log EC50 (pEC50) on EGFR (human) [8] was 6.52.

On EGFR (human) [7], `Cn1c(SSc2c(C(=O)Nc3ccccc3)c3cc(C(F)(F)F)ccc3n2C)c(C(=O)Nc2ccccc2)c2cc(C(F)(F)F)ccc21` had a pIC50 below 4.00.

Consider `ON1=CC=Cc2[nH]c(c3ccncc3)c(c4ccc(F)cc4)c12`, for which the pIC50 against MAPK14 [9] was 5.17.

Turning to `CCOc1cc2ncc(C#N)c(Nc3ccc(OCc4ccccn4)c(Cl)c3)c2cc1NC(=O)C=C1CCNCC1`, the pEC50 at EGFR (human) [8] was 6.80.

For `O=c1[nH]c2ccc(Oc3ccccc3)nc2[nH]1`, the pIC50 with EGFR (murine) is below 4.00.

For the molecule `CSc1c(-c2ccncc2)nc(-c2ccc(NC(=O)Nc3ccc(N4CCOCC4=O)cc3)cc2)nc1N1CCOCC1`, the pIC50 on PIK3CA (human) [10] was 6.54.

At MAPK14 (human) [11], `COc1cc2c(Nc3cc(NC(=O)c4cccc(N(C)C)c4)ccc3C)ncnc2c(OC)c1OC` had a pIC50 of 5.28.

For the molecule `COc1cc(O)c2c(=O)c(-c3cccc(Cl)c3)cn(C)c2c1`, the pIC50 with EGFR (mouse) was 5.55.

As for `CC(C)Nc1ncc2cc(-c3ccccc3Cl)c3nccn3c2n1`, the pIC50 against MAPK14 [12] is 8.85.

In turn, `CC(C)(CO)Nc1ncc2cc(-c3ccccc3Cl)c3nccn3c2n1` had a pIC50 at MAPK14 [12] of 7.73. This pIC50 lies 1.12 log units lower than the previous one.

The molecule `O=C(C=C1CCNC1)Nc1ccc2ncnc(Nc3cccc(Br)c3)c2c1` had a pEC50 on EGFR (human) [8] of 4.89.

For `Cn1c(SSc2c(C(=O)Nc3cccnn3)c3ccccc3n2C)c(C(=O)Nc2cccnc2)c2ccccc21`, at EGFR (human) [7], the pIC50 was below 4.00.

On MAPK14 [5], `COc1cc2ncnc(N3CCN(C(=S)NCc4ccccc4)CC3)c2cc1OC` gave a pIC50 below 4.52.

Molecule `O=C(/C=C/CN1CC2CC1CO2)Nc1cc2c(Nc3ccc(F)c(Cl)c3)ncnc2cc1O[C@H]1CCOC1` (stereo not given in full) gave a pIC50 at EGFR (human) [2] of 9.30.

As to `CN(C)CCCn1c(SSc2c(C(=O)Nc3ccccc3)c3ccccc3n2CCCN(C)C)c(C(=O)Nc2ccccc2)c2ccccc21`, the pIC50 on EGFR (human) [7] is 4.59.

At EGFR (human) [6], `O=C(O)C1=Cc2c(Cl)ncnc2NCC1` showed a pIC50 of 7.44.

`C=CCOCCn1c(SC)nc(-c2ccc(F)cc2)c1-c1ccnc(NC(C)=O)c1`: the pIC50 against MAPK14 (human) [13] is below 4.00.

Consider `NCc1ccc(C(=O)Nc2ccncc2F)cc1-c1cccc(CC(=O)OCC2CCCC2)c1`, for which the pIC50 against ROCK2 (human) [14] is 6.00 to 7.00.

`CC(C)(C)NC(=O)c1cccc(Oc2ccc(Nc3ncnc4ccn(CCO)c34)cc2Cl)c1` had a pIC50 against EGFR (human) [6] of 8.64.

For `Cc1ccc([N+](=O)[O-])cc1S(=O)(=O)N(C)N=Cc1cn(C)c2ccccc12`, the pIC50 against PIK3CA (human) [15] is below 4.70.

As to `C[C@@H](Nc1nc[nH]c2nc(-c3ccccc3)cc1-2)c1ccccc1`, on EGFR (human) [16], the pIC50 was 7.30 to 8.00.

Consider `COCCCOC(=O)c1cccc(-c2cc(C(=O)Nc3ccncc3)ccc2CN)c1`, for which, on ROCK2 (human) [14], the pIC50 is 6.00 to 7.00.

As for `Cc1cccc(Nc2ncnc3ccc(N(C)C(=O)NCCCl)cc23)c1`, at EGFR [17], the pIC50 is 5.77.

Regarding `CCOc1cnc(-c2ccc(NC(=O)Nc3ccc(NS(C)(=O)=O)cc3)cc2)nc1N1CCOCC1`, the pIC50 against PIK3CA (human) [10] is above 8.00.

For `CC(N)c1ccc(C(=O)Nc2ccncc2)cc1-c1cccc(C(=O)OCc2ccncc2)c1` (stereo not given), the pIC50 at ROCK2 (human) [18] was above 7.00.

Molecule `Nc1ccc(-c2cc3c(N4CCc5ccccc54)ncnc3[nH]2)cc1` showed a pIC50 against EGFR [1] of 6.68.

On to `CC[C@@H](CO)Nc1cc(NCc2ccc(-c3ccccn3)cc2)c2ncn(C(C)C)c2n1`, for which the pIC50 was 6.82 against CDK2 (human) [19] and 7.00 against CDK2 (human) [20].

As for `CSc1cnc(-c2ccc(NC(=O)Nc3ccc(N4CCOCC4=O)cc3)cc2)nc1N1CCOCC1`, the pIC50 on PIK3CA (human) [10] was 6.85.

On to `CC[C@@H](CO)Nc1cc(NCc2ccccc2)c2ncn(C(C)C)c2n1`, for which the negative logarithm of the IC50 (pIC50) is 6.38 against CDK2 (human) [19] and 6.51 against CDK2 (human) [20].

Turning to `COc1cc2ncnc(Nc3ccc(F)c(Cl)c3F)c2cc1OC1CCN(C(=O)OCCN2CCCC2)CC1`, the pIC50 against EGFR (human) [21] is 7.82.
